Laboratory results as given in patent US10124004B2, “Pyrido[3,4-d]pyrimidine derivative and pharmaceutically acceptable salt thereof” (Teijin Pharma Limited, priority 2015, dated 2018).
Like-named read-outs stand apart in the source and are kept apart here.

Tests used:
[1] = molecular target: T1, CDK4/cyclin D3 (Homo sapiens, UniProt P11802); experiment: Human CDK4/cyclin D3 inhibitory activity (QS S Assist CDK4/Cyclin D3_FP Kit, IMAP fluorescence polarization); assay type: biochemical
T1 construct: purchased Carna Biosciences, Inc. QS S Assist CDK4/Cyclin D3_FP Kit
Summary of the method: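 IMAP fluorescence-polarization kinase assay with kit ATP/substrate/metal mix and 12.5 to 25 ng/well enzyme in 20 mM HEPES pH 7.4, 0.01% Tween20, 2 mM DTT. Reaction ran 45 min at room temperature, then binding reagent was added for 30 min in the dark. IC50 was taken from dose-response fits of percent inhibition.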

[2] = molecular target: T2, CDK2/cyclin A2 (Homo sapiens, UniProt P24941); experiment: Human CDK2/cyclin A2 inhibitory activity (QS S Assist CDK2/Cyclin A2_FP Kit, IMAP fluorescence polarization); assay type: biochemical
T2 construct: purchased Carna Biosciences, Inc. QS S Assist CDK2/Cyclin A2_FP Kit
Method: Human CDK2/Cyclin A^2 Inhibitory Activity
Each compound was analyzed for CDK2/cyclin A2 inhibitory activity with an assay kit (QS S Assist CDK2/Cyclin A2_FP Kit, available from Carna Biosciences, Inc.). This assay kit determines kinase activity on the basis of the IMAP technology by Molecular Devices. Specifically, the kinase activity is determined through quantification of a variation in fluorescent polarization caused by binding of a kinase-phosphorylated fluorescent substance to an IMAP-binding reagent.
An assay buffer was prepared by 10-fold dilution of the 10× assay buffer attached to the kit with distilled water, and each solution was prepared with the assay buffer. The assay buffer contained 20 mM HEPES (pH 7.4), 0.01% Tween 20, and 2 mM dithiothreitol. A test compound solution was prepared by dilution of the test compound with dimethyl sulfoxide (DMSO) to a concentration 100 times higher than the final concentration and then 25-fold dilution with the assay buffer to a concentration four times higher than the final concentration. An ATP/substrate/Metal solution was prepared by five-fold dilution of the 5×ATP/substrate/Metal solution attached to the kit with the assay buffer. An enzyme solution was prepared by dilution of the CDK2/cyclin A2 attached to the kit with the assay buffer to a concentration twice higher than the final concentration (final concentration of CDK2/cyclin A2: 2.5 ng/well). A detection reagent was prepared by five-fold dilution of 5×IMAP-binding buffer A with distilled water and 400-fold dilution of the IMAP-binding reagent with the diluted buffer.
The test compound solution (5 μL/well) and the ATP/substrate/Metal solution (5 μL/well) were added to a 384-well plate, and the enzyme solution or the assay buffer (10 μL/well) was added to the plate (total amount of the reaction mixture: 20 μL/well) for initiation of enzymatic reaction. […] The reaction was performed at room temperature for 60 minutes, and the detection reagent (60 μL/well) was then added to the plate, followed by further reaction for 30 minutes at room temperature under light shielding conditions. Subsequently, fluorescent polarization was determined with a microplate reader at an excitation wavelength of 485 nm and an emission wavelength of 535 nm.
The percent inhibition of enzyme activity was calculated for each test compound (note: enzyme activity=100% in the case of addition of the enzyme solution and addition of DMSO instead of the test compound solution, whereas enzyme activity=0% in the case of addition of the assay buffer instead of the enzyme solution and addition of DMSO instead of the test compound solution). The percent inhibition of enzyme activity was fitted to a dose-response curve, to determine a 50% inhibitory concentration against CDK2/cyclin A2.
In each table, “+++” corresponds to IC50<10 nM, “++” 10 nM≤IC50<100 nM, and “+” 100 nM≤IC50.

[3] = Human CDK4/cyclin D3 inhibitory activity, read-out: CDK4 Activity symbol
[4] = Human CDK2/cyclin A2 inhibitory activity, read-out: CDK2 Activity symbol
[5] = 50% inhibitory concentration against CDK4/cyclin D3, given as class symbol
[6] = 50% inhibitory concentration against CDK2/cyclin A2, given as class symbol

T1 sequence (P11802 whole entry): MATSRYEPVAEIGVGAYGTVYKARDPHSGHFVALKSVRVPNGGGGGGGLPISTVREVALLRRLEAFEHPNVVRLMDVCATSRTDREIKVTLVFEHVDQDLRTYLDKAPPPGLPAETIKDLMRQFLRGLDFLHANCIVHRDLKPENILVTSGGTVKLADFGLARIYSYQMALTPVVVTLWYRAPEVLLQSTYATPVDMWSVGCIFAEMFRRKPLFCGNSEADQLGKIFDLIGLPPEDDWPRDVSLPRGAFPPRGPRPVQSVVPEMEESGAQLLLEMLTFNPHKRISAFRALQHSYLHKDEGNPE
T1 sequence (P30281 whole entry partner): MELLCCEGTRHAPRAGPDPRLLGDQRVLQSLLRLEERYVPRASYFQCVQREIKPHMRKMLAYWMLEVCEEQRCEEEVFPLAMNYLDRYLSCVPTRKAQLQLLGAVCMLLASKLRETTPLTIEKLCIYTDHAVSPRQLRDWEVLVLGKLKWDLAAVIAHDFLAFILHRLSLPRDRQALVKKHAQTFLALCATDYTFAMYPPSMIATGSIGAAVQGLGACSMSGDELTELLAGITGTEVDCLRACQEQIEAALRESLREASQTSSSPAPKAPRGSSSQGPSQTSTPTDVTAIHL

SMILES | IC50 [1, 3] [nM] | IC50 [2, 4] [nM] | IC50 [1, 5] [nM] | IC50 [2, 6] [nM]
CC(O)c1cc2cnc(Nc3ccc(N4CCNCC4)cn3)nc2c(NCc2ccccc2)n1 (centres unmarked) [Compound 69] | < 10 | ≥ 100 | – | –
CC(C)Nc1nc([C@@H](C)O)cc2cnc(Nc3ccc(N4CCN(C5CCC5)CC4)nn3)nc12 [Compound 602] | < 10 | ≥ 100 | – | –
CC(O)c1cc2cnc(Nc3ccc(N4CCNCC4)cn3)nc2c(NC(C)c2cc[nH]n2)n1 (centres unmarked) [Compound 105] | < 10 | ≥ 100 | – | –
Cc1cccc(Nc2ncc3cc(C(F)F)nc(NC(C)C)c3n2)n1 [Compound 104] | 10 to 100 | ≥ 100 | – | –
CNc1nc(C(F)F)cc2cnc(Nc3ccc(N4CCNCC4)cn3)nc12 [Compound 19] | < 10 | ≥ 100 | – | –
CC(C)Nc1nc(C(C)O)cc2cnc(Nc3ccc(CN4CCNCC4)cn3)nc12 (centres unmarked) [Compound 79] | < 10 | ≥ 100 | – | –
CO[C@H](C)c1cc2cnc(Nc3ccc(CN4CCN(CC(F)F)CC4)cn3)nc2c(NC(C)C)n1 [Compound 281] | 10 to 100 | ≥ 100 | – | –
C[C@@H](O)c1cc2cnc(Nc3ccc(CN4CCNCC4)cn3)nc2c(NC2CCOCC2)n1 [Compound 255] | < 10 | ≥ 100 | – | –
CO[C@H](C)c1cc2cnc(Nc3ccc(OCCN4CCCC4)cn3)nc2c(NC(C)C)n1 [Compound 287] | < 10 | ≥ 100 | – | –
CO[C@H](C)c1cc2cnc(Nc3ccc(CN4CCNCC4=O)cn3)nc2c(NC(C)C)n1 [Compound 237] | 10 to 100 | ≥ 100 | – | –
CC(C)Nc1nc([C@@H](C)O)cc2cnc(Nc3ccc(N4CCC(N)C4=O)cn3)nc12 (some centres unmarked) [Compound 583] | < 10 | ≥ 100 | – | –
COCC(C)(C)Nc1nc([C@@H](C)O)cc2cnc(Nc3ccc(CC(N)=O)cn3)nc12 [Compound 222] | 10 to 100 | ≥ 100 | – | –
CO[C@H](C)c1cc2cnc(Nc3ccc(OCC(=O)N4CCNCC4)cn3)nc2c(NC(C)C)n1 [Compound 557] | < 10 | ≥ 100 | – | –
CO[C@H](C)c1cc2cnc(Nc3ccc(OC4CCNCC4)cn3)nc2c(NC(C)C)n1 [Compound 289] | < 10 | ≥ 100 | – | –
CC(C)Nc1nc(C(F)F)cc2cnc(Nc3ccc(N4CCC(O)CC4)nn3)nc12 [Compound 171] | < 10 | 10 to 100 | – | –
CC(C)Nc1nc(C(F)F)cc2cnc(Nc3ccc(CN4CCC(C(N)=O)CC4)cn3)nc12 [Compound 125] | < 10 | 10 to 100 | – | –
CC(C)Nc1nc(C(F)F)cc2cnc(Nc3ccc(NC(=O)CO)cn3)nc12 [Compound 95] | ≥ 100 | 10 to 100 | – | –
CC(C)Nc1nc(C(F)F)cc2cnc(Nc3ccc(CN4CCCCC4)cn3)nc12 [Compound 177] | < 10 | 10 to 100 | – | –
CO[C@H](C)c1cc2cnc(Nc3ccc(N4CCCC(N)C4=O)cn3)nc2c(NC(C)C)n1 (some centres unmarked) [Compound 591] | < 10 | ≥ 100 | – | –
COC1CCC(Nc2nc([C@@H](C)O)cc3cnc(Nc4ccc(N5CCNCC5=O)cn4)nc23)CC1 (some centres unmarked) [Compound 650] | – | – | < 10 | ≥ 100
CC(C)Nc1nc(C(F)F)cc2cnc(Nc3ccc(N4CCC(O)C4)cn3)nc12 (centres unmarked) [Compound 53] | < 10 | 10 to 100 | – | –
CC(O)c1cc2cnc(Nc3ccc(N4CCNCC4)cn3)nc2c(NC2CCOC2)n1 (centres unmarked) [Compound 92] | < 10 | ≥ 100 | – | –
CC(C)Nc1nc(C(F)F)cc2cnc(Nc3ccc(N4CCC(C(C)(C)O)CC4)nn3)nc12 [Compound 191] | < 10 | 10 to 100 | – | –
CCN1CCN(Cc2ccc(Nc3ncc4cc([C@@H](C)OC)nc(NC(C)C)c4n3)nc2)CC1 [Compound 240] | < 10 | ≥ 100 | – | –

Continued, values first:

IC50 [1, 3] [nM] | IC50 [2, 4] [nM] | IC50 [1, 5] [nM] | IC50 [2, 6] [nM] | SMILES
– | – | < 10 | ≥ 100 | C[C@@H](O)c1cc2cnc(Nc3ccc(N4CCNCC4=O)cn3)nc2c(NCC2CC2)n1 [Compound 1043]
– | – | < 10 | ≥ 100 | CO[C@H](C)c1cc2cnc(Nc3ccc(CN4CCN(CCO)CC4)cn3)nc2c(N[C@@H](C)CO)n1 [Compound 915]
– | – | < 10 | ≥ 100 | CC(C)Nc1nc([C@@H](C)O)cc2cnc(Nc3ccc(N4CCN(C[C@@H](C)O)CCC4=O)cn3)nc12 [Compound 721]
– | – | < 10 | ≥ 100 | CC(C)Nc1nc([C@@H](C)O)cc2cnc(Nc3ccc(N4CCNC[C@@H]4C)cn3)nc12 [Compound 986]
– | – | < 10 | ≥ 100 | CC(C)Nc1nc([C@@H](C)O)cc2cnc(Nc3ccc(N4CCC(CO)C4)nn3)nc12 (some centres unmarked) [Compound 663]
– | – | < 10 | ≥ 100 | CO[C@H](C)c1cc2cnc(Nc3ccc4c(n3)CCN(CCN(C)C)C4)nc2c(N[C@H]2CCCOC2)n1 [Compound 1132]
– | – | < 10 | ≥ 100 | CO[C@H](C)c1cc2cnc(Nc3ccc(CN4CCNC[C@H]4C)cn3)nc2c(NC(C)C)n1 [Compound 978]
– | – | 10 to 100 | ≥ 100 | CCCNc1nc([C@@H](C)OC)cc2cnc(Nc3ccc4c(n3)CCN(C(=O)CO)C4)nc12 [Compound 1111]
– | – | < 10 | ≥ 100 | CCCNc1nc([C@@H](C)O)cc2cnc(Nc3ccc4c(n3)CCN(C(=O)CO)C4)nc12 [Compound 1116]
– | – | < 10 | ≥ 100 | CC(C)Nc1nc([C@@H](C)O)cc2cnc(Nc3ccc(N4CCN[C@@H](C(C)C)C4=O)cn3)nc12 [Compound 765]
– | – | < 10 | ≥ 100 | CCCNc1nc(C2CCOC2)cc2cnc(Nc3ccc4c(n3)CCNC4)nc12 (centres unmarked) [Compound 948]
– | – | < 10 | 10 to 100 | CNCCOc1ccc(Nc2ncc3cc(C(C)O)nc(NC4(C)CCCOC4)c3n2)nc1 (single isomer, unassigned) [Compound 869]
– | – | 10 to 100 | ≥ 100 | Cc1ncn(Cc2ccc(Nc3ncc4cc([C@@H](C)O)nc(NC(C)C)c4n3)nc2)c1C(=O)O [Compound 965]
– | – | < 10 | ≥ 100 | CC(C)Nc1nc([C@@H](C)O)cc2cnc(Nc3ccc(-c4cnn(C5CCNCC5)c4)cn3)nc12 [Compound 808]
– | – | < 10 | ≥ 100 | CCNc1nc([C@@H](C)O)cc2cnc(Nc3ccc(CN4CCN(C)CC4)cn3)nc12 [Compound 1103]
– | – | < 10 | ≥ 100 | CC(C)Nc1nc([C@@H](C)O)cc2cnc(Nc3ccc(C4CCCNC(C)C4=O)cn3)nc12 (some centres unmarked) [Compound 686]
– | – | 10 to 100 | ≥ 100 | CC(C)Nc1nc([C@@H](C)O)cc2cnc(Nc3cc4c(cn3)CN(C(=O)CO)CC4)nc12 [Compound 655]
– | – | < 10 | ≥ 100 | CC(C)Nc1nc([C@@H](C)O)c(Cl)c2cnc(Nc3ccc(N4CCC(O)CC4)nn3)nc12 [Compound 753]
– | – | < 10 | ≥ 100 | CC(C)Nc1nc([C@@H](C)O)cc2cnc(Nc3ccc(O[C@@H]4CCN(CCO)C4)cn3)nc12 [Compound 1058]
– | – | 10 to 100 | ≥ 100 | CO[C@H](C)c1cc2cnc(Nc3ccc(CN4CCN(C(=O)C5CCCO5)CC4)cn3)nc2c(NC(C)C)n1 (some centres unmarked) [Compound 1157]
– | – | < 10 | ≥ 100 | CC(=O)c1cc2cnc(Nc3ccc(N4CCNCCC4=O)cn3)nc2c(NC(C)C)n1 [Compound 1029]
– | – | < 10 | ≥ 100 | CCNc1nc([C@@H](C)O)c(Cl)c2cnc(Nc3ccc(CN4CCN(CCO)CC4)cn3)nc12 [Compound 984]
